What was measured:
[1] = log P by HPLC on reversed-phase column (EEC directive 79/831 Annex V.A8); format: physicochemical; settings: for log p: HPLC on reversed-phase column (footnote a); for log p a): HPLC on reversed-phase column
How it was run: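 Determined per EEC directive 79/831 Annex V.A8 by HPLC on a reversed-phase C18 column at 43° C.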

Ctenocephalides felis = Ctenocephalides felis in vitro contact test with adult cat fleas; format: in vivo; settings: application rate 5 μg/cm^2, after 48 h, adult cat fleas dead or moribund
Description: Ctenocephalides felis—In Vitro Contact Tests with Adult Cat Fleas
For the coating of the test tubes, 9 mg of active ingredient are first dissolved in 1 ml of acetone p.a. and then diluted to the desired concentration with acetone p.a. 250 μl of the solution are distributed homogeneously on the inner walls and the base of a 25 ml test tube by turning and rocking on an orbital shaker (rocking rotation at 30 rpm for 2 h). With 900 ppm of active ingredient solution and internal surface area 44.7 cm^2, given homogeneous distribution, an area-based dose of 5 μg/cm^2 is achieved.
After the solvent has evaporated off, the tubes are populated with 5-10 adult cat fleas (Ctenocephalides felis), sealed with a perforated plastic lid and incubated in a horizontal position at room temperature and ambient humidity. After 48 h, efficacy is determined. To this end, the test tubes are stood upright and the fleas are knocked to the base of the tube. Fleas which remain motionless at the base or move in an uncoordinated manner are considered to be dead or moribund.
100% efficacy means that all the fleas were dead or moribund. 0% efficacy means that no fleas were harmed.

Meloidogyne incognita = Meloidogyne incognita test; format: in vivo; settings: application rate 20 ppm, formation of galls on lettuce after 14 days
Description: Meloidogyne incognita Test Solvent: 125.0 parts by weight of acetone
To produce a suitable preparation of active ingredient, 1 part by weight of active ingredient is mixed with the stated amount of solvent and the concentrate is diluted with water to the desired concentration.
Vessels are filled with sand, active ingredient solution, an egg/larvae suspension of the southern root-knot nematode (Meloidogyne incognita) and lettuce seeds. The lettuce seeds germinate and the plants develop. The galls develop on the roots.
After 14 days, the nematicidal efficacy in % is determined by the formation of galls. 100% means that no galls were found; 0% means that the number of galls on the treated plants corresponds to the untreated control.

Diabrotica balteata = Diabrotica balteata spray test; format: in vivo; settings: application rate 160 μg/well, wheat grains with beetle larvae, after 7 days
Description: Diabrotica balteata—Spray Test Solvent: 78 parts by weight of acetone • • 1.5 parts by weight of dimethylformamide Emulsifier: alkylaryl polyglycol ether
(§1) To produce a suitable active ingredient formulation, 1 part by weight of active ingredient is dissolved with the stated parts by weight of solvent and made up with water containing an emulsifier concentration of 1000 ppm until the desired concentration is attained. To produce further test concentrations, the formulation is diluted with emulsifier-containing water.
Pre-swollen wheat grains (Triticum aestivum) are incubated in a multiwell plate filled with agar and a little water for one day (5 seed grains per cavity). The germinated wheat grains are sprayed with an active ingredient formulation of the desired concentration. Subsequently, each cavity is infected with 10-20 beetle larvae of Diabrotica balteata.
After 7 days, the efficacy in % is determined. 100% means that all wheat plants have grown as in the untreated, uninfected control; 0% means that no wheat plant has grown.

Myzus persicae [2] = test: Myzus persicae oral test; format: in vivo; settings: application rate 20 ppm, oral uptake through parafilm, after 5 days
How it was run: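 Compound dissolved in acetone, diluted with water, then mixed into IPL41 insect medium with sugar in microtitre plates under parafilm. Mixed-population green peach aphids fed through the membrane; % mortality scored after 5 days (100% = all killed).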

Lucilia cuprina = Lucilia cuprina test; format: in vivo; settings: application rate 100 ppm, L1 larvae, after 2 days
Description: Lucilia cuprina Test Solvent: dimethyl sulphoxide
To produce a suitable active ingredient formulation, 10 mg of active ingredient are mixed with 0.5 ml of dimethyl sulphoxide, and the concentrate is diluted with water to the desired concentration.
About 20 L1 larvae of the Australian sheep blowfly (Lucilia cuprina) are transferred into a test vessel containing minced horsemeat and the active ingredient formulation of the desired concentration.
After 2 days, the kill in % is determined. 100% means that all the larvae have been killed; 0% means that no larvae have been killed.

Myzus persicae [3] = test: Myzus persicae spray test (bell pepper plants); format: in vivo; settings: application rate 100 ppm, after 6 days
Description: Myzus persicae—Spray Test Solvent: 14 parts by weight of dimethylformamide Emulsifier: alkylaryl polyglycol ether
as §1, with “water. If the addition of ammonium salts or/and penetrants is required, these are each added in a concentration of 1000 ppm to the formulation solution.” for “water.”
Bell pepper plants (Capsicum annuum) severely infested with the green peach aphid (Myzus persicae) are treated by spraying with the active ingredient formulation in the desired concentration.
After 6 days, the kill in % is determined. 100% means that all of the aphids have been killed; 0% means that none of the aphids have been killed.

Phaedon cochleariae = Phaedon cochleariae spray test; format: in vivo; settings: application rate 500 g/ha, Chinese cabbage leaf discs, larvae, after 7 days
Description: Phaedon cochleariae—Spray Test Solvent: 78.0 parts by weight of acetone • • 1.5 parts by weight of dimethylformamide Emulsifier: alkylaryl polyglycol ether
as §1
Discs of Chinese cabbage leaves (Brassica pekinensis) are sprayed with an active ingredient formulation of the desired concentration and, after drying, populated with larvae of the mustard beetle (Phaedon cochleariae).
After 7 days, the efficacy in % is determined. 100% means that all the beetle larvae have been killed; 0% means that no beetle larvae have been killed.

Myzus persicae [4] = test: Myzus persicae spray test (Chinese cabbage leaf discs); format: in vivo; settings: application rate 500 g/ha, after 6 days
How it was run: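 Active ingredient was formulated in acetone/DMF and diluted with water containing 1000 ppm emulsifier. Chinese cabbage leaf discs infested with all aphid stages were sprayed, and % kill was scored after 6 days (100% = all aphids dead).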

Boophilus microplus = Boophilus microplus injection test; format: in vivo; settings: application rate 20 μg/animal, assessed after 7 days by laying of fertile eggs
Description: Boophilus microplus—Injection Test Solvent: dimethyl sulphoxide
To produce a suitable active ingredient formulation, 10 mg of active ingredient are mixed with 0.5 ml of solvent and the concentrate is diluted with solvent to the desired concentration.
1 μl of the active ingredient solution is injected into the abdomen of 5 engorged adult female cattle ticks (Boophilus microplus). The animals are transferred into dishes and kept in a climate-controlled room.
Efficacy is assessed after 7 days by laying of fertile eggs. Eggs which are not visibly fertile are stored in a climate-controlled cabinet until the larvae hatch after about 42 days. An efficacy of 100% means that none of the ticks has laid any fertile eggs; 0% means that all the eggs are fertile.

| Compound | log p [1] | efficacy (Ctenocephalides felis) [%] | nematicidal efficacy (Meloidogyne incognita) [%] | efficacy (Diabrotica balteata) [%] | log p a) [1] | efficacy (Myzus persicae [2]) [%] | efficacy (kill in %) (Lucilia cuprina) [%] | efficacy (kill in %) (Myzus persicae [3]) [%] | efficacy (Phaedon cochleariae) [%] | efficacy (Myzus persicae [4]) [%] | efficacy (Boophilus microplus) [%] |
| --- | --- | --- | --- | --- | --- | --- | --- | --- | --- | --- | --- |
| O=C(NCC1CC1)c1c([O-])n(Cc2cnc(Cl)s2)c2cccc[n+]12 [Example I-1-143] | 1.99 | 100 | 90 | 100 |  |  |  |  |  |  |  |
| Cc1cccc(C)c1NC(=O)c1c([O-])n(Cc2cnc(Cl)s2)c2cccc[n+]12 [Example I-1-321] |  |  | 90 |  | 2.76 | 100 |  |  |  |  |  |
| O=C(NC1CC1)c1c([O-])n(Cc2ccc(Cl)nc2)c2cccc[n+]12 [Example I-1-154] | 1.59 |  |  | 80 |  | 100 | 95 | 100 | 100 |  |  |
| Cc1ccccc1NC(=O)c1c([O-])n(Cc2cnc(Cl)s2)c2cccc[n+]12 [Example I-1-239] |  | 100 |  |  | 3.03 | 100 |  |  |  |  |  |
| O=C(Nc1c(F)cccc1Cl)c1c([O-])n(Cc2ccc(Cl)nc2)c2cccc[n+]12 [Example I-1-316] |  |  | 90 |  | 2.44 | 100 |  |  |  | 100 |  |
| Cc1cnn(CC(=O)c2c([O-])n(Cc3cnc(Cl)s3)c3cccc[n+]23)c1 [Example I-1-049] | 1.72 |  |  |  |  | 100 | 100 |  |  | 90 | 80 |
| CC(c1ccc(Cl)nc1)n1c([O-])c(C(=O)CCl)[n+]2ccccc12 (centres unmarked) [Example I-1-161] | 1.75 |  | 90 |  |  | 100 |  |  |  |  |  |
| CCCOCC(=O)c1c([O-])n(Cc2cnc(Cl)s2)c2c(C)ccc[n+]12 [Example I-1-097] | 2.11 |  |  | 100 |  | 100 |  |  | 100 | 90 |  |
| O=C(Nc1c(Cl)cccc1Cl)c1c([O-])n(Cc2ccc(Cl)nc2)c2cccc[n+]12 [Example I-1-314] |  |  | 90 |  | 2.59 | 100 |  |  |  | 100 |  |
| O=C(NC1CC1)c1c([O-])n(Cc2ccc(Cl)nc2)c2c(OC(F)(F)F)ccc[n+]12 [Example I-1-196] | 2.33 |  | 90 |  |  |  |  |  |  |  |  |
| COc1cnn(CC(=O)c2c([O-])n(Cc3cnc(Cl)s3)c3c(C)ccc[n+]23)c1 [Example I-1-094] | 1.75 |  |  |  |  |  |  |  | 100 |  |  |
| COc1ccc[n+]2c(C(=O)NC3CC3)c([O-])n(Cc3cnc(Cl)s3)c12 [Example I-1-240] |  | 100 |  |  | 1.96 | 100 |  |  |  |  |  |
| Cc1ccc[n+]2c(C(=O)Cn3ccc(Cl)n3)c([O-])n(Cc3cnc(Cl)s3)c12 [Example I-1-093] | 2.23 |  |  |  |  | 100 |  |  | 100 |  |  |
| Cc1ccc[n+]2c(C(=O)Nc3c(F)cccc3Cl)c([O-])n(Cc3cnc(Cl)s3)c12 [Example I-1-276] |  |  | 90 | 100 | 2.93 | 100 |  |  |  | 90 |  |
| Cc1ccc[n+]2c(C(=O)NCc3ccc(Cl)cc3)c([O-])n(Cc3ccc(Cl)nc3)c12 [Example I-1-176] | 2.92 |  | 90 |  |  |  |  |  |  |  |  |
| COC(=O)c1c([O-])n(C(C)c2cnc(Cl)s2)c2cccc[n+]12 (centres unmarked) [Example I-1-262] |  |  |  |  | 1.45 |  |  |  | 83 |  |  |
| CCOCC(=O)c1c([O-])n(Cc2ccc(Cl)nc2)c2c(Cl)ccc[n+]12 [Example I-1-116] | 1.78 |  | 90 |  |  | 100 |  |  |  |  |  |
| COc1cccc(F)c1NC(=O)c1c([O-])n(Cc2cnc(Cl)s2)c2cccc[n+]12 [Example I-1-323] |  |  | 90 |  | 2.27 | 100 |  |  |  |  |  |
| CC(C)CNC(=O)c1c([O-])n(Cc2cnc(Cl)s2)c2cccc[n+]12 [Example I-1-147] | 2.29 | 80 | 90 | 100 |  | 100 |  | 100 |  |  |  |
| CC(c1ccc(Cl)nc1)n1c([O-])c(C(=O)NC2CC2)[n+]2ccccc12 (centres unmarked) [Example I-1-202] |  |  |  | 80 | 1.75 | 100 | 100 | 90 |  |  | 80 |
| CCOCC(=O)c1c([O-])n(Cc2ccc(Cl)nc2)c2cccc[n+]12 [Example I-1-020] | 1.39 |  |  | 100 |  | 100 |  |  |  | 90 | 80 |
| CSc1ccn(CC(=O)c2c([O-])n(Cc3ccc(Cl)nc3)c3cccc[n+]23)n1 [Example I-1-054] | 1.35 |  |  |  |  | 100 |  |  |  | 100 | 100 |
| CCOCC(=O)c1c([O-])n(Cc2cnc(Cl)s2)c2c(C)ccc[n+]12 [Example I-1-083] | 1.72 |  |  | 100 |  | 100 |  |  | 100 | 90 |  |
| CC(c1cnc(Cl)s1)n1c([O-])c(C(=O)NC2CC2)[n+]2ccccc12 (centres unmarked) [Example I-1-254] |  |  |  | 100 | 1.94 | 100 | 100 |  |  | 90 | 80 |
| Cc1ccc(Cn2c([O-])c(C(=O)NC3CC3)[n+]3ccccc23)cn1 [Example I-1-243] |  | 100 |  |  | 0.81 | 100 |  |  |  |  |  |
| Cc1ccn(CC(=O)c2c([O-])n(Cc3cnc(Cl)s3)c3cccc[n+]23)n1 [Example I-1-012] | 1.63 |  |  |  |  | 100 |  |  |  | 90 | 100 |

Reference: patent US20180282323A1, “Mesoionic imidazole derivatives as insecticides” (BAYER CROPSCIENCE AKTIENGESELLSCHAFT, priority 2015, published 2018)
